We go through 17 substances from publication PMC11009412, “Pathogenic mutations of human phosphorylation sites affect protein–protein interactions” (Nature Communications, 2024).

Entries after “also recorded” stand apart in the source; their conditions may differ.

Assay [1] concerns BirA*-FLAG-GATAD1 variants in Flp-In-293 cells. As to the kind of experiment: BioID proximity labelling of full-length GATAD1 variants (SILAC). It is filed as cell-based, human. As to conditions: GATAD1 WT vs S102P, significant proteins only; for Log2_Ratio.H.L.normalized.WT_S102P_forward: forward experiment (label swap performed, sign inverted against the H/L ratio); for Log2_Ratio.H.L.normalized.WT_S102P_forward / Log2_Ratio.H.L.normalized.WT_S102P_reverse: log2 of normalized H/L ratio; for Ratio.H.L.normalized.WT_S102P_forward: forward experiment; for Log2_Ratio.H.L.normalized.WT_S102P_reverse / Ratio.H.L.normalized.WT_S102P_reverse: reverse experiment. An excerpt: The GATAD1 gene variants were ordered in a pTwist ENTR Kozak vector from Twist Bioscience. The genes were then transferred to a pDEST_pcDNA5_BirA_FLAG_Nterm vector[97] using the Gateway Clonase II system (Thermo Fisher Scientific). The resulting vectors, pEXPR_GATAD1-WT_N-term_BirA_FLAG, pEXPR_GATAD1-S102P_N-term_BirA_FLAG, pEXPR_GATAD1-S102D_N-term_BirA_FLAG, and pEXPR_GATAD1-S102A_N-term_BirA_FLAG, were used to generate tetracycline-inducible stable Flp-In^TM-293 T-REx cells. A 6-well plate was co-transfected with 0.5 µg of the pEXPR plasmid and 1 µg of the pOG44 Flp-recombinase expression vector (Thermo Fisher Scientific) using 4.5 µg of PEI (Polysciences) as a transfection reagent. The following day, the cells were trypsinized and transferred to a 10 cm dish containing DMEM supplemented with 10% FCS and 200 µg/ml hygromycin B (Invivogen) for selection. The cells were cultured for approximately 18 days with media exchange every 3 days until visible colonies were observed. After around 18 days, the colonies were trypsinized and transferred to another 10 cm dish for further characterization and experiments.
Stable Flp-In^TM-293 cell lines expressing GATAD1 variants were cultured using SILAC light (Lys0, Arg0) and SILAC heavy (Lys8, Arg10) media, as explained in the cell culture section. After full labeling, cells were split into 15 cm dishes and were treated with 1 μg/mL tetracycline for 24 h to induce the expression of GATAD1. After the induction period, cells were incubated with 50 μM biotin overnight for proximity biotinylation. As a control, wild-type GATAD1 cells, without biotin or tetracycline addition, were used. Samples were multiplexed, as shown in Supplementary Fig. 41A with both forward and reverse label swap (n = 2). Cells were then lysed in lysis buffer (50 mM Tris-HCl pH 7.5, 150 mM NaCl, 1% Triton X-100, 1 mM EDTA, 1 mM EGTA, 0.1% SDS) with freshly added protease inhibitors and 1% sodium deoxycholate. To digest the excess DNA, 1 μl of Benzonase was added, and the samples were incubated for 20 min at 37 °C. Biotinylated proteins were enriched for 3 h at 4 °C using streptavidin-sepharose beads (GE Cat# 17-5113-01). Beads were pre-washed twice with 0.01% BSA and twice with lysis buffer. After enrichment, the beads were washed one time with lysis buffer, two times with washing buffer (50 mM HEPES-KOH pH 8.0, 100 mM KCl, 10% glycerol, 2 mM EDTA, 0.1% NP-40), and six times with 50 mM ammonium bicarbonate. Beads were resuspended in ammonium bicarbonate, and an on-bead protein digest with 1 μg of trypsin followed overnight. The next day, the digested proteins were transferred to a fresh tube and were incubated with 10 mM DTT for 30 min at 37 °C and with 55 mM iodoacetamide for 20 min at 37 °C in the dark. Samples were desalted with StageTips.
Peptides were separated using reversed-phase liquid chromatography (EASY nLC II 1200, Thermo Fisher Scientific) with self-made C18 microcolumns (20 cm long) packed with ReproSil-Pur C18-AQ 1.9 μm resin (Dr. Maisch, cat# r119.aq.0001). The chromatography system was coupled online to the electrospray ion source (Proxeon) of an Orbitrap Exploris 480 mass spectrometer (Thermo Fisher Scientific). The mobile phase consisted of buffer A (0.1% formic acid and 5% acetonitrile) and buffer B (0.1% formic acid and 80% acetonitrile). Peptides were eluted using a gradient with increasing concentrations of buffer B over 110 minutes, at a flow rate of 250 nl/min. Mass spectrometry data was acquired in data-dependent mode with settings for one full scan (resolution: 60,000; m/z range: 350–1600; normalized AGC target: 300%; maximum injection time: 10 ms), followed by top 20 MS/MS scans using higher-energy collisional dissociation (resolution: 15,000; m/z range: 200–2000; normalized AGC target: 100%; maximum injection time: 120 ms; isolation width: 1.3 m/z; normalized collision energy: 28%).
Raw files were analyzed with MaxQuant, version 2.0.3.0. […]

The target in a further assay is T1, 14-3-3 epsilon (YWHAE) (Homo sapiens, UniProt P62258).
T1 construct: residues 1 and 236-255 are disordered and therefore not visible in the electron density; GST (N, cleaved yes); made in house; host or cells: Escherichia coli C41 (DE3)
T1 sequence (P62258 1-255): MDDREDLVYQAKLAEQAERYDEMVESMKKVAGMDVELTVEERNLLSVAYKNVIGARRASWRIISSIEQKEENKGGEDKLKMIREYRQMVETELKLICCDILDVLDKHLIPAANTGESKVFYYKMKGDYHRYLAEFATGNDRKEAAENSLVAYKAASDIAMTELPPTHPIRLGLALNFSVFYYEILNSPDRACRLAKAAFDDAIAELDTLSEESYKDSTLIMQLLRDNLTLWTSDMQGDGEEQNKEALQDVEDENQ
As to the kind of experiment: Isothermal titration calorimetry (ITC) of GATAD1 peptides with 14-3-3ε. It is filed as binding. The note with it: 18 °C, 400 µM peptide in syringe, 25 µM 14-3-3ε in chamber, 20 mM HEPES pH 7.0, 150 mM NaCl, 2 mM DTT. As to the method: The 14-3-3ε (YWHAE) cDNA was purchased from Twist Bioscience in the pTwist Chlor High Copy vector and cloned into the pGEX6P1 plasmid (GE Healthcare) for recombinant expression as a GST-fusion protein followed by a Prescission protease cleavage site. The plasmid was freshly transformed into Escherichia coli C41 (DE3) cells. Cultures were grown in terrific broth supplemented with ampicillin (100 μg/ml) at 37 °C and 80 rpm until an optical density at 600 nm of 0.7 was reached. […] Cells were harvested by centrifugation at 4000 g and frozen at −20 °C.
Following resuspension in lysis buffer (50 mM HEPES/NaOH pH 7.5, 500 mM NaCl and 3 mM Dithiothreitol (DTT)) supplemented with 1 mg deoxyribonuclease I (DNaseI, Roche) and protease inhibitor 4-(2-Aminoethyl) benzenesulfonyl fluoride hydrochloride S7(AEBSF), cells were disrupted using a microfluidizer (Microfluidics). The cell extract was centrifuged at 55,000 g for 45 min at 4 °C to remove insoluble parts. The cleared supernatant was applied onto a prepacked Glutathione Sepharose 4B column (Cytiva) equilibrated in the lysis buffer. The column was extensively washed with lysis buffer. To cleave off the GST tag, 1 mg PreScission protease was diluted in 5 ml OCC buffer (50 mM HEPES/NaOH pH 7.5, 150 mM NaCl, and 3 mM DTT), applied to the column material, and incubated overnight at 4 °C. Cleaved 14-3-3ε protein was eluted from the column using OCC buffer, concentrated and loaded onto an 16/60 S200 column (Cytiva) equilibrated in SEC buffer (20 mM HEPES/NaOH pH 7.5, 150 mM NaCl and 2 mM DTT). Pure and homogenous 14-3-3ε was concentrated to 13 mg/ml, flash-frozen in liquid nitrogen, and stored at −80 °C until further use.
GATAD1 peptides used in these experiments were obtained from JPT peptide technologies with an N-terminus in amine and a C-terminus in amide form with 95% purity. ITC experiments were performed using a PEAQ-ITC microcalorimeter (Malvern). All titrations were performed at 18 °C with 400 µM peptide in the syringe and 25 µM 14-3-3ε in the reaction chamber. The protein and the titration components were dissolved in a buffer containing 20 mM HEPES pH 7.0, 150 mM NaCl, and 2 mM DTT. Malvern software was used for data visualization and fitting. The raw ITC results can be found in Supplementary Fig. 42.

On to BCLAF1, for which, in assay [1], the Log2_Ratio.H.L.normalized.WT_S102P_forward was determined as 1.402, the Ratio.H.L.normalized.WT_S102P_forward was 0.3784, the Log2_Ratio.H.L.normalized.WT_S102P_reverse came to 1.045 and the Ratio.H.L.normalized.WT_S102P_reverse came out at 2.064.

For BOD1L1, in assay [1], the Log2_Ratio.H.L.normalized.WT_S102P_forward was 1.279, the Ratio.H.L.normalized.WT_S102P_forward stood at 0.4121, the Log2_Ratio.H.L.normalized.WT_S102P_reverse came out at 1.335 and the Ratio.H.L.normalized.WT_S102P_reverse came out at 2.5226.

Regarding HDGFRP2, in assay [1], the Log2_Ratio.H.L.normalized.WT_S102P_forward stood at 1.523, the Ratio.H.L.normalized.WT_S102P_forward is given as 0.348, the Log2_Ratio.H.L.normalized.WT_S102P_reverse is 1.484 and the Ratio.H.L.normalized.WT_S102P_reverse was 2.7966.

As for “LRNTKYKEAPAAEKK [S102E, phosphomimetic S102E mutant GATAD1 peptide]”, the “Interaction with 14-3-3ε by ITC (in words)” value (from here on “Interaction with 14-3-3ε”) at 14-3-3 epsilon (YWHAE) is listed as “do not interact”.

For the substance “LRNTKYKPAPAAEKK [GATAD1_Ser102Pro, GATAD1 15-mer with the disease-linked S102P mutation]”, at 14-3-3 epsilon (YWHAE), the “Interaction with 14-3-3ε” value is “Neither the non-phosphorylated wild-type peptide nor the peptide with the disease-linked S102P mutation showed detectable binding; also recorded: do not interact”.

Regarding “LRNTKYKSAPAAEKK [GATAD1, wild-type non-phosphorylated GATAD1 15-mer; ITC form with C-terminus in amide form]”, the “Interaction with 14-3-3ε” value is “do not interact” at 14-3-3 epsilon (YWHAE) and “Neither the non-phosphorylated wild-type peptide nor the peptide with the disease-linked S102P mutation showed detectable binding” at 14-3-3 epsilon (YWHAE) (listed as non-phosphorylated wild-type peptide).

As for MED1, in assay [1], the Log2_Ratio.H.L.normalized.WT_S102P_forward was 1.28, the Ratio.H.L.normalized.WT_S102P_forward is reported as 0.4118, the Log2_Ratio.H.L.normalized.WT_S102P_reverse is recorded as 1.018 and the Ratio.H.L.normalized.WT_S102P_reverse is 2.0257.

For the substance MGA, in assay [1], the Log2_Ratio.H.L.normalized.WT_S102P_forward was found to be 1.435, the Ratio.H.L.normalized.WT_S102P_forward was determined as 0.3699, the Log2_Ratio.H.L.normalized.WT_S102P_reverse turned out to be 1.064 and the Ratio.H.L.normalized.WT_S102P_reverse worked out at 2.0912.

On to NCOR1, for which, in assay [1], the Log2_Ratio.H.L.normalized.WT_S102P_forward stood at 1.327, the Ratio.H.L.normalized.WT_S102P_forward came out at 0.3987, the Log2_Ratio.H.L.normalized.WT_S102P_reverse is on record as 1.25 and the Ratio.H.L.normalized.WT_S102P_reverse was found to be 2.3792.

For NPM1, in assay [1], the Log2_Ratio.H.L.normalized.WT_S102P_forward is recorded as 1.325, the Ratio.H.L.normalized.WT_S102P_forward amounted to 0.3991, the Log2_Ratio.H.L.normalized.WT_S102P_reverse amounted to 1.034 and the Ratio.H.L.normalized.WT_S102P_reverse is on record as 2.0483.

As for PCF11, in assay [1], the Log2_Ratio.H.L.normalized.WT_S102P_forward was 1.509, the Ratio.H.L.normalized.WT_S102P_forward was found to be 0.3515, the Log2_Ratio.H.L.normalized.WT_S102P_reverse worked out at 1.2027 and the Ratio.H.L.normalized.WT_S102P_reverse came out at 2.3017.

On to PSME3, for which, in assay [1], the Log2_Ratio.H.L.normalized.WT_S102P_forward is 1.443, the Ratio.H.L.normalized.WT_S102P_forward was 0.3677, the Log2_Ratio.H.L.normalized.WT_S102P_reverse was 1.216 and the Ratio.H.L.normalized.WT_S102P_reverse is reported as 2.3229.

Take “PSPGRQNSKAPKLTL [NCOA6, wild-type non-phosphorylated 15-mer]”: in assay [1], the Log2_Ratio.H.L.normalized.WT_S102P_forward came out at 1.334, the Ratio.H.L.normalized.WT_S102P_forward came out at 0.3966, the Log2_Ratio.H.L.normalized.WT_S102P_reverse amounted to 1.3003 and the Ratio.H.L.normalized.WT_S102P_reverse is on record as 2.4628.

On to RBBP6, for which, in assay [1], the Log2_Ratio.H.L.normalized.WT_S102P_forward was determined as 1.156, the Ratio.H.L.normalized.WT_S102P_forward was 0.4486, the Log2_Ratio.H.L.normalized.WT_S102P_reverse is reported as 1.0059 and the Ratio.H.L.normalized.WT_S102P_reverse is 2.0082.

For the substance TPR, in assay [1], the Log2_Ratio.H.L.normalized.WT_S102P_forward came to 1.211, the Ratio.H.L.normalized.WT_S102P_forward stood at 0.4319, the Log2_Ratio.H.L.normalized.WT_S102P_reverse is listed as 1.117 and the Ratio.H.L.normalized.WT_S102P_reverse is given as 2.169.

Turning to ZC3H4, in assay [1], the Log2_Ratio.H.L.normalized.WT_S102P_forward was 1.304, the Ratio.H.L.normalized.WT_S102P_forward turned out to be 0.405, the Log2_Ratio.H.L.normalized.WT_S102P_reverse was determined as 1.071 and the Ratio.H.L.normalized.WT_S102P_reverse worked out at 2.1009.

Take ZNF318: in assay [1], the Log2_Ratio.H.L.normalized.WT_S102P_forward was 1.385, the Ratio.H.L.normalized.WT_S102P_forward came to 0.3829, the Log2_Ratio.H.L.normalized.WT_S102P_reverse was determined as 1.241 and the Ratio.H.L.normalized.WT_S102P_reverse is 2.3636.
